The test system of this assay is L1210 leukemia ip in BDF1 mice, survival T/C. The assay is described as follows: NCI In Vivo Anticancer Drug Screen. Data for tumor model L1210 Leukemia (intraperitoneal) in B6D2F1 (BDF1) mice. The following applies: endpoint: mean survival time, higher = longer survival. The essentials: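 Antitumor effect is assessed in tumor-bearing animals. Survival in the compound arm is compared with a vehicle-dosed control arm and expressed as their quotient.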

The mark [1] stands for this setting: dose: 100.0 mg/kg/injection, schedule: Q01DX001 (ip), vehicle: saline.
Where [2] appears, read: dose: 200.0 mg/kg/injection, schedule: Q01DX001 (ip), vehicle: saline.
Where [3] appears, read: dose: 400.0 mg/kg/injection, schedule: Q01DX001 (ip), vehicle: saline.
Setting [4] is: dose: 100.0 mg/kg/injection, schedule: Q01DX009 (ip), vehicle: Klucel (hydroxypropylcellulose) (HPC).
[5] abbreviates: dose: 200.0 mg/kg/injection, schedule: Q01DX009 (ip), vehicle: Klucel (hydroxypropylcellulose) (HPC).
The mark [6] stands for this setting: dose: 100.0 mg/kg/injection, schedule: Q04DX003 (ip), vehicle: saline.
Where [7] appears, read: dose: 200.0 mg/kg/injection, schedule: Q04DX003 (ip), vehicle: saline.
Where [8] appears, read: dose: 100.0 mg/kg/injection, schedule: Q04DX003 (ip), vehicle: Klucel (hydroxypropylcellulose) (HPC).
The mark [9] stands for this setting: dose: 200.0 mg/kg/injection, schedule: Q04DX003 (ip), vehicle: Klucel (hydroxypropylcellulose) (HPC).
The mark [10] stands for this setting: dose: 400.0 mg/kg/injection, schedule: Q04DX003 (ip), vehicle: Klucel (hydroxypropylcellulose) (HPC).
[11] abbreviates: dose: 100.0 mg/kg/injection, schedule: Q01DX009 (ip), vehicle: saline with Tween-80.
Where [12] appears, read: dose: 25.0 mg/kg/injection, schedule: Q01DX009 (ip), vehicle: saline.
The mark [13] stands for this setting: dose: 50.0 mg/kg/injection, schedule: Q01DX009 (ip), vehicle: saline.
Where [14] appears, read: dose: 100.0 mg/kg/injection, schedule: Q04DX003 (ip), vehicle: saline with Tween-80.

“And” between values parts separate entries of the source, which are not always exact repeats. Equal values may be shown once. Toxic doses and inconclusive results are not listed.

For the compound `CCC[CH2][Sn]([Cl])([Cl])[CH2]CCC`, the T/C was 100 % of control (dose: 2.5 mg/kg/injection, schedule: Q01DX009 (ip), vehicle: saline with Tween-80); 95 % of control (dose: 5.0 mg/kg/injection, schedule: Q01DX009 (ip), vehicle: saline with Tween-80); 104 % of control (dose: 5.0 mg/kg/injection, schedule: Q04DX003 (ip), vehicle: saline with Tween-80); 95 % of control (dose: 10.0 mg/kg/injection, schedule: Q01DX009 (ip), vehicle: saline with Tween-80); 101 % of control (dose: 10.0 mg/kg/injection, schedule: Q04DX003 (ip), vehicle: saline with Tween-80); 119 % of control (dose: 20.0 mg/kg/injection, schedule: Q04DX003 (ip), vehicle: saline with Tween-80).

As to `O=c1c2c(c(=O)c(=O)c1=O)Nc1ccccc1N2`, the T/C is, setting by setting: under setting [1], 98 % of control; under setting [2], 104 % of control; under setting [3], 98 % of control.

`OC(CSc1ccccc1)(c1ccccc1)c1ccccc1`: the T/C (dose: 56.3 mg/kg/injection, schedule: Q03DX002 (ip), vehicle: saline with Tween-80) was 121 % of control and the T/C (dose: 112.0 mg/kg/injection, schedule: Q03DX002 (ip), vehicle: saline with Tween-80) is 102 % of control.

Take `O=C(Nc1ccccc1C(F)(F)F)N(CC(O)c1ccccc1)C1CCCCC1` (stereo not drawn): the T/C under setting [4] was 106 % of control; the T/C under setting [5] is 95 % of control; the T/C (dose: 400.0 mg/kg/injection, schedule: Q01DX009 (ip), vehicle: Klucel (hydroxypropylcellulose) (HPC)) is 100 % of control.

As to `CC(=O)C(C(C)=O)C(c1ccccc1)C(C(C)=O)C(C)=O`, the T/C is 94 % of control under setting [4] and 91 % of control under setting [5].

With `OC(CN1CC1)C(O)CN1CC1` (stereo not drawn), the T/C was 114 % of control (dose: 0.06 mg/kg/injection, schedule: Q01DX Z (ip), vehicle: carboxymethylcellulose (CMC)); 100 % of control (dose: 0.4 mg/kg/injection, schedule: Q01DX Z (ip), vehicle: saline); 200 % of control (dose: 0.5 mg/kg/injection, schedule: Q01DX Z (ip), vehicle: carboxymethylcellulose (CMC)); 100 % of control (dose: 0.6 mg/kg/injection, schedule: Q01DX Z (ip), vehicle: saline); 95 % of control (dose: 0.9 mg/kg/injection, schedule: Q01DX Z (ip), vehicle: saline); 90 % of control (dose: 1.0 mg/kg/injection, schedule: Q01DX Z (ip), vehicle: carboxymethylcellulose (CMC)). Also, where the note is “dose: 1.3 mg/kg/injection, schedule: Q01DX Z (ip), vehicle: saline”, the T/C is 95 % of control.

`NC(=O)c1cc[n+](-c2ccc([N+](=O)[O-])cc2[N+](=O)[O-])cc1`: the T/C was 102 % of control under setting [6] and 103 % of control under setting [7].

Turning to `CC12CCC(=O)CC1CCC1C2CCC2(C)C(C(=O)O)CCC12` (stereo not drawn), the T/C (dose: 25.0 mg/kg/injection, schedule: Q04DX002 (ip), vehicle: saline with Tween-80) was 99 % of control; the T/C (dose: 50.0 mg/kg/injection, schedule: Q04DX002 (ip), vehicle: saline with Tween-80) was 96 % of control; the T/C (dose: 100.0 mg/kg/injection, schedule: Q04DX002 (ip), vehicle: saline with Tween-80) was 108 % of control.

Consider `CCC(C(OC(=O)Nc1ccc(Cl)c(Cl)c1)c1ccc(Cl)cc1)C(O)(C(F)(F)F)C(F)(F)F` (stereo not drawn), for which the T/C reads like this: under setting [8], 98 % of control; under setting [9], 100 % of control; under setting [10], 98 % of control.

On to `O=C(O)c1c(Cl)nsc1Cl`, for which the T/C runs as follows: under setting [4], 98 % of control; under setting [5], 98 % of control.

Regarding `CC(=O)NCC(=O)c1ccc(S(=O)(=O)c2ccccc2)cc1`, the T/C is 104 % of control (dose: 50.0 mg/kg/injection, schedule: Q01DX001 (ip), vehicle: carboxymethylcellulose (CMC)); 98 % of control (dose: 100.0 mg/kg/injection, schedule: Q01DX001 (ip), vehicle: carboxymethylcellulose (CMC)); 96 % of control (dose: 200.0 mg/kg/injection, schedule: Q01DX001 (ip), vehicle: carboxymethylcellulose (CMC)); 98 % of control (dose: 400.0 mg/kg/injection, schedule: Q01DX001 (ip), vehicle: carboxymethylcellulose (CMC)).

As for `Cn1c(=O)cc(CNc2ccc(-c3ccccc3)cc2)c2ccccc21`, the T/C by setting is: under setting [1], 92 % of control; under setting [2], 90 % of control; under setting [3], 88 % of control.

As to `O=C(NCCN1CCOCC1)c1ccc(C(=O)NCCN2CCOCC2)cc1`, the T/C under setting [1] is 103 % of control, the T/C under setting [2] was 105 % of control and the T/C under setting [3] is 100 % of control.

`COc1cccc2c1C(=O)c1c(O)c3c(c(O)c1C2=O)C[C@@](O)(/C(C)=N\O)C[C@@H]3OC1CC(N)C(O)C(C)O1` (stereo partly drawn): the T/C by setting is: (dose: 1.0 mg/kg/injection, schedule: Q04DX003 (ip), vehicle: water) 106 % of control; (dose: 2.0 mg/kg/injection, schedule: Q04DX003 (ip), vehicle: water) 115 % of control; (dose: 4.0 mg/kg/injection, schedule: Q04DX003 (ip), vehicle: water) 113 % of control.

Consider `COc1ccc([N+](=O)[O-])cc1/C=C/C=O`, for which the T/C was 100 % of control under setting [1], 92 % of control under setting [2] and 100 % of control under setting [3].

For the compound `CSc1nc(Cl)nc(SC)n1`, the T/C under setting [8] was 96 % of control, the T/C under setting [9] was 96 % of control and the T/C under setting [10] is 96 % of control.

On to `CCCC[n+]1[nH]oc(=O)c1C(=O)[O-]`, for which, under setting [8], the T/C is 98 % of control.

For `COc1ccc(C(=O)CSc2cc[o+]cc2)cc1`, the T/C was 95 % of control under setting [1]; 94 % of control under setting [11]; 95 % of control under setting [6]; 97 % of control under setting [2]; 104 % of control (dose: 200.0 mg/kg/injection, schedule: Q01DX009 (ip), vehicle: saline with Tween-80); 92 % of control under setting [7]. For the same compound, the T/C is 106 % of control under setting [3]; 90 % of control (dose: 400.0 mg/kg/injection, schedule: Q01DX009 (ip), vehicle: saline with Tween-80); 97 % of control (dose: 400.0 mg/kg/injection, schedule: Q04DX003 (ip), vehicle: saline).

For `CCCCCCCCCC(=O)N1CCOCC1`, the T/C under setting [12] is 98 % of control; the T/C (dose: 25.0 mg/kg/injection, schedule: Q04DX003 (ip), vehicle: saline) is 97 % of control; the T/C under setting [13] was 113 % of control; the T/C (dose: 50.0 mg/kg/injection, schedule: Q04DX003 (ip), vehicle: saline) was 101 % of control; the T/C under setting [6] was 94 % of control and 89 % of control.

For the compound `CCC(CC)(c1ccccc1)C(O)c1ccccc1` (stereo not drawn), the T/C was 97 % of control (dose: 50.0 mg/kg/injection, schedule: Q01DX001 (ip), vehicle: saline); 97 % of control under setting [1]; 103 % of control under setting [2]; 101 % of control under setting [3].

As to `S=C(Nc1ccc(Cl)c(Cl)c1)Sc1ccccc1`, the T/C is, setting by setting: (dose: 50.0 mg/kg/injection, schedule: Q04DX003 (ip), vehicle: saline with Tween-80) 95 % of control; under setting [14], 91 % of control.

With `NNc1ncnc2nncnc12`, the T/C reads like this: (dose: 9.5 mg/kg/injection, schedule: Q01DX001 (ip), vehicle: other) 98 % of control; (dose: 19.0 mg/kg/injection, schedule: Q01DX001 (ip), vehicle: other) 105 % of control; (dose: 38.0 mg/kg/injection, schedule: Q01DX001 (ip), vehicle: other) 104 % of control.

On to `Oc1ccc2ccccc2c1/C=N/N1CCN(/N=C/c2c(O)ccc3ccccc23)CC1`, for which the T/C under setting [1] is 104 % of control, the T/C under setting [2] was 96 % of control and the T/C under setting [3] is 90 % of control.

In the case of `O=CC(=O)c1ccccc1`, the T/C was 100 % of control (dose: 25.0 mg/kg/injection, schedule: Q01DX009 (ip), vehicle: saline with Tween-80); 101 % of control under setting [12]; 105 % of control (dose: 50.0 mg/kg/injection, schedule: Q01DX009 (ip), vehicle: saline with Tween-80); 104 % of control under setting [13]; 98 % of control (dose: 75.0 mg/kg/injection, schedule: Q01DX009 (ip), vehicle: saline with Tween-80); 107 % of control under setting [11].

Regarding `CCCC(=O)Nc1ccc(Cl)c(Cl)c1`, the T/C under setting [14] is 98 % of control; the T/C (dose: 200.0 mg/kg/injection, schedule: Q04DX003 (ip), vehicle: saline with Tween-80) is 102 % of control; the T/C (dose: 400.0 mg/kg/injection, schedule: Q04DX003 (ip), vehicle: saline with Tween-80) was 89 % of control.

Values taken from PubChem BioAssay AID248 (DTP/NCI, 2004).
